This is an account of results in article PMC8070745, “FEN1 Blockade for Platinum Chemo-Sensitization and Synthetic Lethality in Epithelial Ovarian Cancers” (Cancers, 2021).

The subject of test [1] is BRCA deficient germ-line or platinum-sensitive sporadic epithelial ovarian cancers. Also on record: method as in PMID 22452356, PMID 27717299, PMID 28916367, PMID 27908594. To be noted: maintenance therapy in patients; cited from earlier work.
Test [2] concerns FEN1 nuclear localization in A2780cis cells. In words: Confocal microscopy of FEN1 nuclear localization, A2780cis. In kind it is cell-based, human. To be noted: pre-treatment with importin β inhibitor (5 µM) followed by cisplatin. On the procedure: For PEO1 and PEO4 cells, the cells where keep in culture up to four weeks ([…]) until spheroids structures were formed.
To quantify cell viability, LIVE/DEAD Viability/Cytotoxicity Kit (L3224, Thermo Fisher Scientific) was used. Briefly, the spheroids were harvest by trypsinization, washed with PBS and centrifuge at 1000×g for 5 minutes. The light-protected cellular pellet in PBS was loaded with 0.1µM of Calcein-AM and 1 µM of Ethidium homodimer-1 for 20 minutes at room temperature. The samples were analysed on a Beckman-Coulter FC500 flow cytometer using a 495nm laser for excitation and a 515nm laser for emission data for Calcein AM and a 495nm laser for excitation and emission at 635nm for Ethidium Homodimer-1. In addition, Image J software was used to calculate spheroid diameter. Mean of three diagonal diameters was taken as diameter for each spheroid. At least 10 spheroids were measured. […]
Laboratories). Imaging was carried out using Leica SP2 confocal laser scanning microscope (CLSM) and analysed with ImageJ software (NIH, USA). For analysis a minimum of 100 cells per slide were counted.
On 3D structures, the spheroids were fixed with 4% paraformaldehyde for 30 minutes. […] Imaging was carried out using Leica SP2 confocal laser scanning microscope (CLSM) and analysed with ImageJ software (NIH, USA). […]

The test system of another test is A2780cis cells. In words: Clonogenic assay, A2780cis. To be noted: pre-treatment with importin β inhibitor, then cisplatin vs cisplatin only. In kind it is cell-based, human. On the procedure:
Clonogenic assay: In the clonogenic assay (colony formation assays), 32 cells/cm2 were seeded in 6-well plates and left at 37°C in a 5% CO2 atmosphere. Cisplatin (5µM) and/or FEN1i (10µM) and/or Importazole (5 µM, Selleckem, S8446 ) were added at the indicated concentrations and the plates were left at 37 °C in a 5% CO 2 atmosphere for 14 days. Later, the plates were washed with PBS, fixed and stained with a crystal violet, acetic acid and methanol solution and colonies were counted. […]

For the compound `NC(=O)c1cccc2cn(-c3ccc([C@@H]4CCCNC4)cc3)nc12` [Niraparib], in test [1], the progression-free survival entry is reported as “substantially improves progression-free survival”. As for `CC(Nc1nc(N2CCCC2)nc2ccccc12)c1ccccc1` (centres unmarked) [Importanzole], in test [2], the “nuclear localization of FEN1” value was “reduced nuclear localization of FEN1”. In addition, the “effect on cisplatin sensitivity” value with A2780cis cells is “re-sensitized these cells to cisplatin therapy”. On to `CNCc1ccc(-c2[nH]c3cc(F)cc4c3c2CCNC4=O)cc1` [Rucaparib], for which the progression-free survival result in test [1] is listed as “substantially improves progression-free survival”. For the compound `O=C(c1cc(Cc2n[nH]c(=O)c3ccccc23)ccc1F)N1CCN(C(=O)C2CC2)CC1` [Olaparib], the progression-free survival entry in test [1] was “substantially improves progression-free survival”.
